The target of series [1] is T1, HCMV polymerase (Human cytomegalovirus, UniProt P08546).
T1 construct: made in house; host or cells: recombinant baculovirus-infected SF-9 cells
Put plainly: HCMV polymerase scintillation proximity assay. Format: biochemical. Here is the method: The HCMV polymerase assay is performed using a scintillation proximity assay (SPA) as described in several references, such as N. D. Cook, et al., Pharmaceutical Manufacturing International, pages 49-53 (1992); K Takeuchi, Laboratory Practice, September issue (1992); U.S. Pat. No. 4,568,649 (1986); which are incorporated by reference herein. Reactions are performed in 96-well plates. The assay is conducted in 100 μl volume with 5.4 mM HEPES (pH 7.5), 11.7 mM KCl, 4.5 mM MgCl2, 0.36 mg/ml BSA, and 90 nM ^3H-dTTP. Assays are run with and without CHAPS, (3-[(3-Cholamidopropyl)-dimethylammonio]-1-propane-sulfonate) at a final concentration of 2 mM. HCMV polymerase is diluted in enzyme dilution buffer containing 50% glycerol, 250 mM NaCl, 10 mM HEPES (pH 7.5), 100 μg/ml BSA, and 0.01% sodium azide. The HCMV polymerase, which is expressed in recombinant baculovirus-infected SF-9 cells and purified according to literature procedures, is added at 10% (or 10 μl) of the final reaction volume, i.e., 100 μl. Compounds are diluted in 50% DMSO and 10 μl are added to each well. Control wells contain an equivalent concentration of DMSO. Unless noted otherwise, reactions are initiated via the addition of 6 nM biotinylated poly(dA)-oligo(dT) template/primer to reaction mixtures containing the enzyme, substrate, and compounds of interest. Plates are incubated in a 25° C. or 37° C. H2O bath and terminated via the addition of 40 μl/reaction of 0.5 M EDTA (pH 8) per well. Reactions are terminated within the time-frame during which substrate incorporation is linear and varied depending upon the enzyme and conditions used, i.e., 30 min. for HCMV polymerase. Ten (10) μl of streptavidin-SPA beads (20 mg/ml in PBS/10% glycerol) are added following termination of the reaction. Plates are incubated 10 min. at 37° C., then equilibrated to room temperature, and counted on a Packard Topcount. Linear regressions are performed and IC50's are calculated using computer software.
A modified version of the above HCMV polymerase assay is performed as described above, but with the following changes: Compounds are diluted in 100% DMSO until final dilution into assay buffer. In the previous assay, compounds are diluted in 50% DMSO. 4.5 mM Dithiothreitol (DTT) is added to the polymerase buffer.
All results are listed as Polymerase IC50 (μM) values. In Table 1, the term “n.d.” refers to activity data not determined.

Series [2] concerns the target VZV polymerase (Varicella-zoster virus, UniProt P09252). The experiment in a line: VZV polymerase assay (Table 1). It is filed as biochemical.
Series [3] has as its target HSV polymerase (Human herpesvirus 1, UniProt P04293). The experiment in a line: HSV polymerase assay (Table 1). Format: biochemical.

Where two headings read alike, the source gives them in different places.

Drawing on patent publication US20040116464A1, “Aryl-ethanolamine derivatives as antiviral agents” (priority 2002, published 2004), this text covers IC50 and melting point for 14 compounds.

T1 sequence (P08546 whole entry): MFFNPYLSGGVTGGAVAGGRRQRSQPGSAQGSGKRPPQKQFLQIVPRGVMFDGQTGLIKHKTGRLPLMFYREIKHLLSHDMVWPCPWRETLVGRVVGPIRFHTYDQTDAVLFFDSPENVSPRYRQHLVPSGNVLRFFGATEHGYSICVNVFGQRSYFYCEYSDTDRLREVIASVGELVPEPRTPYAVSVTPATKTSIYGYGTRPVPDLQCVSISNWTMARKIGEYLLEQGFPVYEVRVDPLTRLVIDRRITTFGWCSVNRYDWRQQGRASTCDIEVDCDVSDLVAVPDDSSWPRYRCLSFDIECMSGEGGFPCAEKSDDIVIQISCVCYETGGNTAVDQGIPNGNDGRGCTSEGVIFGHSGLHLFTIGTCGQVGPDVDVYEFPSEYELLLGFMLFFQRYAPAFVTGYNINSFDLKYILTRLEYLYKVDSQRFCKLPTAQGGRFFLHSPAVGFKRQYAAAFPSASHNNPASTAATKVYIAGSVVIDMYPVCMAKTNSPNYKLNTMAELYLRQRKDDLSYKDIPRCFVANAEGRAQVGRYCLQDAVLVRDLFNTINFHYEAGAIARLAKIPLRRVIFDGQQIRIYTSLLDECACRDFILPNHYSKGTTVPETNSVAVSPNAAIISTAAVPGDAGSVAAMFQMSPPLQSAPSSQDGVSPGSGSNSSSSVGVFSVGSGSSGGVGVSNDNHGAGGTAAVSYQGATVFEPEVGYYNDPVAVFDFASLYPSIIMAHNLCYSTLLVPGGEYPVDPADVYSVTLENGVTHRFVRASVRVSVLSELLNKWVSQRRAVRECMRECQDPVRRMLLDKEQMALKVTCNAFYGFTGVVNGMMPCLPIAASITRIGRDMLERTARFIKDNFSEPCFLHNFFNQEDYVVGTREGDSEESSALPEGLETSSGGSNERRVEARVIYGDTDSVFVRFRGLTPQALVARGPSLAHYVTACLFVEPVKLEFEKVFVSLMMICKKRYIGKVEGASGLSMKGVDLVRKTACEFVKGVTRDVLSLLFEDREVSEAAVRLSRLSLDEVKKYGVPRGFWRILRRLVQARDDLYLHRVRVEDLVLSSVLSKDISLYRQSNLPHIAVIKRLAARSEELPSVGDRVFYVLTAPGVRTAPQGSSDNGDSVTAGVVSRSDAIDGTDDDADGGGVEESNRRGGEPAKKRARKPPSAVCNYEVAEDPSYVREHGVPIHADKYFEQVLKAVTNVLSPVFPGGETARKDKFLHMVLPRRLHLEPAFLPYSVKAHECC
Sequence of VZV polymerase (P09252 whole entry): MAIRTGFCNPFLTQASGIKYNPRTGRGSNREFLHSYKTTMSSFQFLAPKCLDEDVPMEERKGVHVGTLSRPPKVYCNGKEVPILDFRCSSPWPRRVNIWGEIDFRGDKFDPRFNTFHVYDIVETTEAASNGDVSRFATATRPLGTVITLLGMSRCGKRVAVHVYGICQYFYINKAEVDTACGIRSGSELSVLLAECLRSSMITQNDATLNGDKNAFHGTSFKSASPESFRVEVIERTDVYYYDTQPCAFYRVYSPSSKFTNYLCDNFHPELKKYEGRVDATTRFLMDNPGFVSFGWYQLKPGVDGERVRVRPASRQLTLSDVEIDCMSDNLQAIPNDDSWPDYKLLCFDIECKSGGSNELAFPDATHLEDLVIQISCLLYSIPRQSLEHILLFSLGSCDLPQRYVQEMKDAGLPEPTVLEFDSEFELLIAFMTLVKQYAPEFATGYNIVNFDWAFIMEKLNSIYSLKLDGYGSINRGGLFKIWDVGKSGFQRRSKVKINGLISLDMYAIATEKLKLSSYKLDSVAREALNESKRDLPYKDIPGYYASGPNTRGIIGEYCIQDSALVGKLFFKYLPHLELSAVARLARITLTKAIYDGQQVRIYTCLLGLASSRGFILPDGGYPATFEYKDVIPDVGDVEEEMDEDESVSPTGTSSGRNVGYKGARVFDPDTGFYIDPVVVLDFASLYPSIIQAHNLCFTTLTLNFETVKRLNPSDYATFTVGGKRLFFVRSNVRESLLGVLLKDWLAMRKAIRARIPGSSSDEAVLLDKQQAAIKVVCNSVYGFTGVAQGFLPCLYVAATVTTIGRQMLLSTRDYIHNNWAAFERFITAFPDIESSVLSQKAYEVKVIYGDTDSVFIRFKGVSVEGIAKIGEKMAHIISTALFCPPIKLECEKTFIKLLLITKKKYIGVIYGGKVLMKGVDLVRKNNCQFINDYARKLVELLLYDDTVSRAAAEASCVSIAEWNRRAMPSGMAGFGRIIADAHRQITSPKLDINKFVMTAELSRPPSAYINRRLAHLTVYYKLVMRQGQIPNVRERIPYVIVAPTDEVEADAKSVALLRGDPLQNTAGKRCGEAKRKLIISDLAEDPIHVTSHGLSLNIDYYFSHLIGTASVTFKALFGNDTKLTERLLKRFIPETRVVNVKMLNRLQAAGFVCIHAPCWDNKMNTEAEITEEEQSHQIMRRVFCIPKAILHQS
Sequence of HSV polymerase (P04293 whole entry): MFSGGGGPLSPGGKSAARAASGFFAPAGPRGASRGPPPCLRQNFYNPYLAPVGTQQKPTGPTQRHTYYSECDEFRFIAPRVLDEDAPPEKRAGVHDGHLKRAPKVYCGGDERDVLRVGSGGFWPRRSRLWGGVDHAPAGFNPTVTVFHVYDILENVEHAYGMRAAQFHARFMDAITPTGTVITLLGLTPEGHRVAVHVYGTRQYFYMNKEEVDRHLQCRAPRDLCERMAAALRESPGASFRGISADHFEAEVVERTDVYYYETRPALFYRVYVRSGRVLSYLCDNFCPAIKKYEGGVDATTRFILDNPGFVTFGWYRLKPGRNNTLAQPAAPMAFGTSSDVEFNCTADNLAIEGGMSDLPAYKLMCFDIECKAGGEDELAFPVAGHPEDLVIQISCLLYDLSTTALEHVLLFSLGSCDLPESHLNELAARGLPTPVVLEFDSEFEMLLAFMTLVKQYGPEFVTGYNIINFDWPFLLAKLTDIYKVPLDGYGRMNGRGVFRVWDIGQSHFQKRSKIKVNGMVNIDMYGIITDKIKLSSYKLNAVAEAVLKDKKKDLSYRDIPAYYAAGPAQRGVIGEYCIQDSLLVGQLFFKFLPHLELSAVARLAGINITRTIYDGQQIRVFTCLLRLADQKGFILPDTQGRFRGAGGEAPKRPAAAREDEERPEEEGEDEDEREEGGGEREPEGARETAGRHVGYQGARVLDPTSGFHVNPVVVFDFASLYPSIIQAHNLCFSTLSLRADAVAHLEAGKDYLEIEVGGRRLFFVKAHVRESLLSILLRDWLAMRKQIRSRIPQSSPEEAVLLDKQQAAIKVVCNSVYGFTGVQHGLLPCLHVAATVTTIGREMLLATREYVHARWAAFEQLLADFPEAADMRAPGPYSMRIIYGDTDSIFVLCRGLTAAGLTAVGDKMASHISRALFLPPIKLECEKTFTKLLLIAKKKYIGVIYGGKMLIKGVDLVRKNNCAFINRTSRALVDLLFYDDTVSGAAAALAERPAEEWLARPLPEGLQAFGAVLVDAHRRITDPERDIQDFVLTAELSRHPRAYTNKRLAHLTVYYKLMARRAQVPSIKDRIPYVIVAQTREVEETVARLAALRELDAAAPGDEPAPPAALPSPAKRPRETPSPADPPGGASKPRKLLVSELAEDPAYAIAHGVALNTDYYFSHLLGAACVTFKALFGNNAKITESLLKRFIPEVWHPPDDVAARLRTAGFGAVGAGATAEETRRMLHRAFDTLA

For orientation: IC50 means the concentration that inhibits the measured activity by half. Consider `CN(Cc1cc2c(=O)c(C(=O)NCc3ccc(Cl)cc3)cn(C)c2s1)C[C@@H](O)c1ccc(CO)cc1` (single isomer, unassigned) [Example 13], for which the IC50 in series [1] (read-out: Polymerase IC50 HCMV) stood at 130 nM; in series [2], 200 nM; in series [3] it was 580 nM.

Turning to `CN(Cc1cc2c(=O)c(C(=O)NCc3ccc(Cl)cc3)cn(CCO)c2s1)C[C@@H](O)c1ccccc1` [Example 5, N-(4-Chlorobenzyl)-7-(2-hydroxyethyl)-2-((((2S)-2-hydroxy-2-phenylethyl)-(methyl)amino)methyl)-4-oxo-4,7-dihydrothieno[2,3-b]pyridine-5-carboxamide], the 50% inhibitory concentration (IC50) in series [1] (read-out: Polymerase IC50 HCMV) was 2020 nM.

As usually defined, the melting point is the temperature, or range, at which the solid turns liquid. For `CCn1cc(C(=O)NCc2ccc(Cl)cc2)c(=O)c2cc(CN(C)C[C@@H](O)c3ccccc3)sc21` [Example 7, N-(4-Chlorobenzyl)-7-ethyl-2-((((2S)-2-hydroxy-2-phenylethyl)(methyl)amino)methyl)-4-oxo-4,7-dihydrothieno[2,3-b]pyridine-5-carboxamide], the melting point lay within 100 to 102 °C. In addition, the IC50 in series [1] (read-out: Polymerase IC50 HCMV) turned out to be 470 nM.

As to `CN(Cc1cc2c(=O)c(C(=O)NCc3ccc(Cl)cc3)cn(CC(O)CO)c2s1)C[C@@H](O)c1ccccc1` (stereo partly drawn) [Example 3, N-(4-Chlorobenzyl)-7-(2,3-dihydroxypropyl)-2-((((2S)-2-hydroxy-2-phenylethyl)-(methyl)amino)methyl)-4-oxo-4,7-dihydrothieno[2,3-b]pyridine-5-carboxamide], in series [1] (read-out: Polymerase IC50 HCMV), the IC50 is 1770 nM.

`CN(Cc1cc2c(=O)c(C(=O)NCc3ccc(Cl)cc3)cn(C)c2s1)C[C@@H](O)c1ccc([N+](=O)[O-])cc1` (single isomer, unassigned) [Example 14] came in with a melting point of 181 to 183 °C. In addition, the IC50 in series [1] (read-out: Polymerase IC50 HCMV) came to 620 nM. In series [3], the IC50 stood at 1720 nM.

`COc1cccc([C@H](O)CN(C)Cc2cc3c(=O)c(C(=O)NCc4ccc(Cl)cc4)cn(C)c3s2)c1` (single isomer, unassigned) [Example 6]: the IC50 is 60 nM in series [1] (read-out: Polymerase IC50 HCMV), 90 nM in series [2] and 160 nM in series [3].

Turning to `CN(Cc1cc2c(=O)c(C(=O)NCc3ccc(Cl)cc3)cn(C)c2s1)C[C@@H](O)c1cccc(C#N)c1` (single isomer, unassigned) [Example 11], the IC50 in series [1] (read-out: Polymerase IC50 HCMV) stood at 100 nM; in series [2], 110 nM; in series [3], 210 nM.

Consider `CN(Cc1cc2c(=O)c(C(=O)NCc3ccc(Cl)cc3)cn(C)c2s1)C[C@@H](O)c1ccc(N(C)C)cc1` (single isomer, unassigned) [Example 12], for which the results for the IC50 in series [1] (read-out: Polymerase IC50 HCMV), in series [2] and in series [3] were 210 nM, 230 nM and 620 nM, respectively.

In the case of `CN(Cc1cc2c(=O)c(C(=O)NCc3ccc(Cl)cc3)cn(C)c2s1)C[C@@H](O)c1ccc(C#N)cc1` (single isomer, unassigned) [Example 10], the IC50 in series [1] (read-out: Polymerase IC50 HCMV) is 340 nM.

In the case of `CN(Cc1cc2c(=O)c(C(=O)NCc3ccc(Cl)cc3)cn(C)c2s1)C[C@@H](O)c1ccc(O)cc1` [Example 1, N-(4-Chlorobenzyl)-2-((((2S)-2-hydroxy-2-(4-hydroxyphenyl)ethyl)(methyl)-amino)methyl)-7-methyl-4-oxo-4,7-dihydrothieno[2,3-b]pyridine-5-carboxamide], the IC50 in series [1] (read-out: Polymerase IC50 HCMV) amounted to 50 nM; in series [2] it was 80 nM; in series [3] it was 200 nM.

In the case of `CN(Cc1cc2c(=O)c(C(=O)NCc3ccc(Cl)cc3)cn(CCCO)c2s1)C[C@@H](O)c1ccccc1` [Example 4, N-(4-chlorobenzyl)-2-((((2S)-2-hydroxy-2-phenylethyl)(methyl)amino)methyl)-7-(3-hydroxypropyl)-4-oxo-4,7-dihydrothieno[2,3-b]pyridine-5-carboxamide], the IC50 in series [1] is 1400 nM.

Compound `CN(Cc1cc2c(=O)c(C(=O)NCc3ccc(Cl)cc3)cn(C)c2s1)C[C@@H](O)c1ccccc1` [Example 2, N-(4-Chlorobenzyl)-2-((((2S)-2-hydroxy-2-phenylethyl)(methyl)amino)methyl)-7-methyl-4-oxo-4,7-dihydrothieno[2,3-b]pyridine-5-carboxamide] gave a melting point of 162 to 164 °C. Further, half-maximal inhibition in series [1] (IC50) was put at […]. Also, half-maximal inhibition in series [2] (IC50) was put at 200 nM. Also, the IC50 in series [3] came out at 400 nM.

For `CCCn1cc(C(=O)NCc2ccc(Cl)cc2)c(=O)c2cc(CN(C)C[C@@H](O)c3ccccc3)sc21` [Example 8, N-(4-Chlorobenzyl)-2-((((2S)-2-hydroxy-2-phenylethyl)(methyl)amino)methyl)-4-oxo-7-propyl-4,7-dihydrothieno[2,3-b]pyridine-5-carboxamide], the melting point lay in the range of 45 to 48 °C. Also, the IC50 in series [1] (read-out: Polymerase IC50 HCMV) worked out at 620 nM.

Turning to `COCCn1cc(C(=O)NCc2ccc(Cl)cc2)c(=O)c2cc(CN(C)C[C@@H](O)c3ccccc3)sc21` [Example 9, N-(4-Chlorobenzyl)-2-((((2S)-2-hydroxy-2-phenylethyl)(methyl)amino)methyl)-7-(2-methoxyethyl)-4-oxo-4,7-dihydrothieno[2,3-b]pyridine-5-carboxamide], the melting point is 105 to 106 °C. In addition, in series [1] (read-out: Polymerase IC50 HCMV), the IC50 was found to be 320 nM.
